The target in the assay is Nicotinamide phosphoribosyltransferase (Homo sapiens, UniProt P43490). The experiment in a line: NMN Fluorescence Biochemical Assay. The method, then: Human Recombinant Enzyme Assay: Compounds described herein were assayed for their ability to stimulate the synthesis of nicotinamide mononucleotide (NMN) by the enzyme NAMPT. The human recombinant enzyme assay measures the activation of the enzyme activity by compounds using recombinant enzyme and substrates in a buffered cell-free system. The assay conditions closely mimic cellular environments. Dose responses were measured using an assay to detect the formation of nicotinamide mono-nucleotide. All experiments were performed in the 384-well format. Generally, 0.5 μL of DMSO containing varying concentrations of the test compound was mixed with 10 μL of the enzyme reagent solution. Enzyme reactions were initiated with the addition of 10 μL of a solution containing the substrates. The final assay conditions were as follows: 6 nM human NAMPT, 2.5 mM ATP, […] in 50 mM HEPES, pH 7.2, 1 mM DTT, 1 mM CHAPS 50 mM NaCl, 100 mM MgCl2. Following an incubation of 60 min at ambient temperature, 10 μL of 20% acetophenone in DMSO was added, followed by 10 μL of 2 M KOH and 40 μL of formic acid. The plates were read for fluorescence (Excitation/Emission=355 nm/460 nm) using an EnVision plate reader after 40 mins of incubation at ambient temperature. […]

pEC50: −log10 of the molar value.

Chain of Nicotinamide phosphoribosyltransferase (P43490 whole entry): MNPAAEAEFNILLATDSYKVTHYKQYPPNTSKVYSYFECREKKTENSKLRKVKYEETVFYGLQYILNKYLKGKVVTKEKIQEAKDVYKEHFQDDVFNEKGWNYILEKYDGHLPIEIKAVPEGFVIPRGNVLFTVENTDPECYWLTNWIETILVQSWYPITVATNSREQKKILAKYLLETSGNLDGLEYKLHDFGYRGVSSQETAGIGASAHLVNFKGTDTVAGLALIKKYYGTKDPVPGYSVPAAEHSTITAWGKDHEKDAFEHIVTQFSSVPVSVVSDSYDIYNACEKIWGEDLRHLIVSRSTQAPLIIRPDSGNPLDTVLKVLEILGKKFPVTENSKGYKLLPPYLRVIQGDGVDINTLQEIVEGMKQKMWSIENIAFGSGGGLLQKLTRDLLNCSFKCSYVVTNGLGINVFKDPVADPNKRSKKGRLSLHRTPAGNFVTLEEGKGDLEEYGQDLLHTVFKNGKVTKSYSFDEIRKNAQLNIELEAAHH

By pEC50 is commonly meant the EC50 on a negative log10 scale, so that one unit is a factor of ten. A higher pEC50 goes with a small EC50. Compound `Cc1nc(C(=O)N2CCN(Cc3ccccc3)C(=O)C2)nc(NCCc2cn[nH]c2)c1C` [US20240067631, Compound 45] had a negative-log EC50 (pEC50) of 5.45.

For `Cc1ccc([C@@H](C)NC(=O)c2nc(C)c(C)c(NCCc3cn[nH]c3)n2)o1` [US20240067631, Compound 101], the pEC50 is 5.39.
